Measurements: article PMC9738913 (2022)

Tested on: d(GC)9 duplex (d(GC)9d(GC)9) (DNA, duplex) GCGCGCGCGCGCGCGCGC
Experiment: fluorescence quenching and UV-vis absorption red shift
Conditions: 100 mM NaCl, 50 mM sodium phosphate; PBS pH 7.4, room temperature; 5 μM proflavine, 2.5 μM DNA; intercalation

binding: yes
SMILES: Nc1ccc2cc3ccc(N)cc3nc2c1
